4 molecules from ChEMBL document CHEMBL1201862, “PubChem BioAssay data set” (2004) can be followed below.

Among the test systems are A498; A549; HOP-92; KM12; LOX IMVI; M19-MEL; Malme-3M; NCI-H522; RXF 393; SF-539; TK-10; SN12C; CAKI-1; MCF7; SF-295.
Common to all, as to assay: DTP human tumour cell line panel, 48 h

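Cells were grown in 96-well plates and exposed to each compound for 48 hours at five concentrations; endpoints were interpolated linearly between bracketing concentrations, or set to the highest concentration if not reached. The concentration for 50% growth inhibition is given as GI50.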 Active and inactive are the calls of the source. Rule as the data show it: active = GI50 up to about 1.1 µM and inactive = higher.

As for `CCOC(=O)C(C)NC(=O)NC12CC3CC(CC(F)(C3)C1)C2` (centres undefined), the GI50 is > 100 µM (inactive) in the assay with A498; > 100 µM (inactive) in the assay on A549; 11.5 µM (inactive) in the assay with HOP-92; > 100 µM (inactive) with KM12; > 100 µM (inactive) with LOX IMVI; 61.1 µM (inactive) with M19-MEL. In addition, the GI50 in the assay with Malme-3M is 63 µM (inactive); with NCI-H522 it was 65.2 µM (inactive); with RXF 393 it was 27.5 µM (inactive); in the assay on SF-539, > 100 µM (inactive); with TK-10 it was > 100 µM (inactive).
On to `NC(=O)Cn1c(=O)[nH]c(=O)c2[nH]cnc21`, for which the GI50 in the assay with A498, in the assay with A549, in the assay on KM12, with LOX IMVI, in the assay on M19-MEL and with Malme-3M was > 100 µM (inactive) in each case. Moreover, the GI50 with NCI-H522, with RXF 393, in the assay on SF-539, in the assay with SN12C and in the assay on TK-10 was > 100 µM (inactive) each time.
Consider `CC(=O)OC1CCC2(C)C3CCC4(C)C(c5ccc(=O)oc5)CC5OC54C3CCC2(O)C1` (centres undefined), for which the GI50 is 1.55 µM (inactive) in the assay with A498; 0.495 µM (active) in the assay with A549; 0.738 µM (active) in the assay on CAKI-1; 2.45 µM (inactive) with HOP-92; 3.21 µM (inactive) in the assay with KM12; 1.63 µM (inactive) with LOX IMVI. The GI50 with M19-MEL is 2.21 µM (inactive); in the assay on MCF7, 2.31 µM (inactive); in the assay on Malme-3M, 0.895 µM (active); in the assay with NCI-H522 it was 0.53 µM (active); in the assay on RXF 393, 0.479 µM (active); in the assay with SF-295, 1.15 µM (inactive). Moreover, the GI50 is 0.75 µM (active) in the assay with SF-539 and 0.617 µM (active) in the assay on SN12C.
As for `O=C(NC1C=Nc2ccc([N+](=O)[O-])cc2NC1=O)c1cc(Cl)cc([N+](=O)[O-])c1` (centres undefined), the GI50 in the assay with A498 was > 100 µM (inactive); with A549, > 100 µM (inactive); in the assay with CAKI-1, > 100 µM (inactive); in the assay on HOP-92 it was > 100 µM (inactive); in the assay with KM12, 54.3 µM (inactive); with LOX IMVI, > 100 µM (inactive). Further, the GI50 is > 100 µM (inactive) in the assay on M19-MEL; 8.65 µM (inactive) with NCI-H522; > 100 µM (inactive) in the assay on RXF 393; > 100 µM (inactive) in the assay with SF-295; > 100 µM (inactive) in the assay with SF-539; > 100 µM (inactive) with SN12C. In addition, in the assay on TK-10, the GI50 is > 100 µM (inactive).
